Data on one compound can be found in ChEMBL document CHEMBL4385604, “Identification of Pyrrolo[2,3- d]pyrimidine-Based Derivatives as Potent and Orally Effective Fms-like Tyrosine Receptor Kinase 3 (FLT3) Inhibitors for Treating Acute Myelogenous Leukemia” (J Med Chem, 2019).

Some results are limits rather than exact numbers.

Assay [1] deals with MV4-11. Nature of the assay: Induction of apoptosis in human MV4-11 cells assessed as viable cells at 10 nM after 48 hrs by Annexin V/propidium iodide staining based flow cytometry (reference value: 94.4%). It is filed as functional. The note with it: MV4-11, 48 h, read-out: Activity.
Assay [2] has as its system Receptor-type tyrosine-protein kinase FLT3 (Homo sapiens), P36888 [UNDEFINED MUTATION]. Briefly: Inhibition of FLT3 ITD mutant in human MV4-11 cells assessed as ratio of phosphorylated STAT5 to beta-actin level at 30 nM after 2 hrs by Western blot analysis relative to control. The class given is cell-based.
In assay [3] the test system is MOLM-13. Briefly: Cell cycle arrest in human MOLM13 cells assessed as accumulation at G0/G1 phase at 30 nM after 24 hrs by propidium iodide staining-based flow cytometric analysis (reference value: 44.53%). It is filed as functional. (In general: In flow cytometry, cells or beads pass a laser one at a time.)
Assay [4] deals with MV4-11. Briefly: Cell cycle arrest in human MV4-11 cells assessed as accumulation at S phase at 3 nM after 24 hrs by propidium iodide staining-based flow cytometric analysis (reference value: 30.12%). It is filed as functional.
Assay [5] has as its system MOLM-13. Briefly: Cell cycle arrest in human MOLM13 cells assessed as accumulation at G0/G1 phase at 1 nM after 24 hrs by propidium iodide staining-based flow cytometric analysis (reference value: 44.53%). The class given is functional.
The test system of assay [6] is MOLM-13. Nature of the assay: Induction of apoptosis in human MOLM13 cells assessed as late apoptotic cells at 10 uM after 48 hrs by Annexin V/propidium iodide staining based flow cytometry (reference value: 5.52%). It is filed as functional.
Assay [7] concerns MV4-11. Nature of the assay: Induction of apoptosis in human MV4-11 cells assessed as necrotic cells at 1 nM after 48 hrs by Annexin V/propidium iodide staining based flow cytometry (reference value: 0.06%). It is filed as functional.
Assay [8] relates to MV4-11. Nature of the assay: Induction of apoptosis in human MV4-11 cells assessed as necrotic cells at 10 nM after 48 hrs by Annexin V/propidium iodide staining based flow cytometry (reference value: 0.06%). The class given is functional.
Assay [9] deals with MOLM-13. Nature of the assay: Induction of apoptosis in human MOLM13 cells assessed as viable cells at 10 uM after 48 hrs by Annexin V/propidium iodide staining based flow cytometry (reference value: 88.2%). The class given is functional. Particulars: MOLM-13, 48 h, read-out: Activity.
In assay [10] the test system is MV4-11. Nature of the assay: Induction of apoptosis in human MV4-11 cells assessed as early apoptotic cells at 1 uM after 48 hrs by Annexin V/propidium iodide staining based flow cytometry (reference value: 2.76%). It is filed as functional.
In the next assay the test system is RS4-11. Nature of the assay: Antiproliferative activity against human RS4:11 cells harboring wild-type FLT3 measured after 72 hrs by MTT assay. The class given is functional, cell-based. The note with it: RS4-11, 72 h. Background: Formazan colour is commonly taken as a measure of viable cells.
Assay [11] concerns MOLM-13. Briefly: Induction of apoptosis in human MOLM13 cells assessed as late apoptotic cells at 10 nM after 48 hrs by Annexin V/propidium iodide staining based flow cytometry (reference value: 5.52%). It is filed as functional.
The subject of assay [12] is MV4-11. Nature of the assay: Cell cycle arrest in human MV4-11 cells assessed as accumulation at G2/M phase at 1 nM after 24 hrs by propidium iodide staining-based flow cytometric analysis (reference value: 21.12%). The class given is functional.
Assay [13] has as its system MOLM-13. Nature of the assay: Cell cycle arrest in human MOLM13 cells assessed as accumulation at G0/G1 phase at 3 nM after 24 hrs by propidium iodide staining-based flow cytometric analysis (reference value: 44.53%). The class given is functional.
Assay [14] deals with Receptor-type tyrosine-protein kinase FLT3 (Homo sapiens), P36888 [UNDEFINED MUTATION]. Nature of the assay: Inhibition of FLT3 ITD mutant in human MOLM13 cells assessed as ratio of phosphorylated STAT5 to beta-actin level at 30 nM after 2 hrs by Western blot analysis relative to control. It is filed as cell-based. On the technique in general: Immunoblotting shows a protein as a band on a membrane.

The target in assay [15] is T1, Receptor-type tyrosine-protein kinase FLT3 (Homo sapiens, UniProt P36888).
T1 sequence (P36888 whole entry): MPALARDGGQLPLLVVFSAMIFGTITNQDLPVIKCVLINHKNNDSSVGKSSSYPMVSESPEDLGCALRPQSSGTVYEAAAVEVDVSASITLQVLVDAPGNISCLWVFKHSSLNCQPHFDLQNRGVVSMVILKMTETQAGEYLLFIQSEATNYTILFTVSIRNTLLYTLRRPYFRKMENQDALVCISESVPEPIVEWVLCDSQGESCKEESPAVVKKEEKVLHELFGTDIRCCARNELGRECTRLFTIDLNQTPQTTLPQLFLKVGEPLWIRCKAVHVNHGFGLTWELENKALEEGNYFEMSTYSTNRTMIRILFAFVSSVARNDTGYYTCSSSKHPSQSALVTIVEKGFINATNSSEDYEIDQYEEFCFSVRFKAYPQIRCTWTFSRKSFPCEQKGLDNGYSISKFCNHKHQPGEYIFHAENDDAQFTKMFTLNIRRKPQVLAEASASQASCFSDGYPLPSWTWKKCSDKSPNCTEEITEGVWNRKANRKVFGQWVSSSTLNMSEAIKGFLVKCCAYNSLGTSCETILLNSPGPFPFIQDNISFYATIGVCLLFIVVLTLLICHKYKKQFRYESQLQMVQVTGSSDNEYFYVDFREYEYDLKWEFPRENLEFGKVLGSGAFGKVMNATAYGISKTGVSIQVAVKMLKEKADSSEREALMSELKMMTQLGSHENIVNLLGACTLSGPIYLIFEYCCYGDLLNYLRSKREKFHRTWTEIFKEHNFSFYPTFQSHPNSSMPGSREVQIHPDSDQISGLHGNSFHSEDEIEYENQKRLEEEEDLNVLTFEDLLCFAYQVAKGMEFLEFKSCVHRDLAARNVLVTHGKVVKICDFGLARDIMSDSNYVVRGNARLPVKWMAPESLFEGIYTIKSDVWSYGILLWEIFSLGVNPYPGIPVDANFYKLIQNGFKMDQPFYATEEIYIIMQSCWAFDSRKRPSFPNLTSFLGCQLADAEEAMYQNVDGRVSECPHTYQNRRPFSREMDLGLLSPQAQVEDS

Assay [16] has as its target Receptor-type tyrosine-protein kinase FLT3 (Homo sapiens) (UniProt P36888). Briefly: Inhibition of FLT3 autophosphorylation in human MV4-11 cells assessed as ratio of phosphorylated FLT3 to beta-actin level at 30 nM after 2 hrs by Western blot analysis relative to control. The class given is cell-based.
The subject of assay [17] is MV4-11. Briefly: Antitumour activity against human MV4-11 cells xenografted in NOD/SCID mouse assessed as tumour growth inhibition at 1 mg/kg, po qd for 14 days measured every two days during compound dosing by caliper method relative to control. It is filed as functional. Particulars: MV4-11, po, read-out: TGI.
Assay [18] concerns MV4-11. Briefly: Cell cycle arrest in human MV4-11 cells assessed as accumulation at G0/G1 phase at 3 nM after 24 hrs by propidium iodide staining-based flow cytometric analysis (reference value: 48.76%). It is filed as functional.
In assay [19] the target is Receptor-type tyrosine-protein kinase FLT3 (Homo sapiens, UniProt P36888, D835H). Briefly: Binding affinity to human partial length FLT3 D835H mutant (V592 to Y969 residues) expressed in Escherichia coli after 1 hr by qPCR analysis.
The species entered for another assay is Homo sapiens. Briefly: Selectivity ratio of IC50 for recombinant human c-Kit (544 to end residues) to IC50 for recombinant human FLT3 (564 to end residues).
Assay [20] has as its system MOLM-13. Nature of the assay: Induction of apoptosis in human MOLM13 cells assessed as necrotic cells at 100 nM after 48 hrs by Annexin V/propidium iodide staining based flow cytometry (reference value: 0.29%). It is filed as functional.
The test system of assay [21] is MOLM-13. Nature of the assay: Induction of apoptosis in human MOLM13 cells assessed as early apoptotic cells at 1 nM after 48 hrs by Annexin V/propidium iodide staining based flow cytometry (reference value: 5.97%). It is filed as functional.

As a reminder, the IC50 is the concentration that gives 50% inhibition. A word on the Kd: it is the concentration at which binding is half-saturated. As to `C=CCn1cc(-c2ccc(NC(=O)Nc3cc(C(C)(C)C)on3)cc2)c2c(N)ncnc21`, the viability at 0.01 µM in the assay with MV4-11 [1] stood at 79.3%. Moreover, the fold change (FC) in [2], in assay [14] and in [16] was 0 each time. Moreover, the Activity in the assay with MOLM-13 [3] worked out at 94.68%; with MV4-11 [4] it was 8.81%; in the assay on MOLM-13 [5], 53.77%; in the assay with MOLM-13 [6], 98.5%; in the assay on MV4-11 [7], 0.13%; in the assay with MV4-11 [8], 0.2%. Moreover, the Activity stood at 19.9% with MV4-11 [10]; 18.3% with MOLM-13 [11]; 16.55% with MV4-11 [12]; 83.62% with MOLM-13 [13]; 87.11% in the assay with MV4-11 [18]; 0.19% in the assay with MOLM-13 [20]. The Activity in the assay with MOLM-13 [21] turned out to be 5.67%. Further, the viability at 10 µM in the assay on MOLM-13 [9] is 0.48%. The concentration for half-maximal inhibition (IC50) in the assay with RS4-11 was above 1000 nM; in [15] it was 7 nM. Further, the inhibition in vivo at 1 mg/kg in the assay on MV4-11 [17] was found to be 70.5%. Also, binding in assay [19] was put at a Kd of 5.14 nM. Besides, the Ratio IC50 in the assay filed under Homo sapiens was above 40.
